The source of these data is ChEMBL document CHEMBL1139557, “Synthesis and relative bioavailability of meptazinol benzoyl esters as prodrugs” (Bioorg Med Chem Lett, 2005).

Data set [1] can be described thus: (§1) Bioavailability in rat. The note with it: in vivo. The format is ADME, organism-based.
The nature of data set [2]: as §1. Format: ADME, organism-based. The note with it: in vivo. This is another data set of the same source.
Data set [3] is described as follows: as §1. The format is ADME, organism-based. The note with it: in vivo. The source holds these as a separate data set.
A short description of data set [4]: as §1. The format is ADME, organism-based. Particulars: in vivo. The source holds these as a separate data set.
The nature of data set [5]: as §1. Format: ADME, organism-based. Particulars: in vivo. The source holds these as a separate data set.
A short description of data set [6]: as §1. Format: ADME, organism-based. Particulars: in vivo. This is another data set of the same source.
Data set [7] can be described thus: Relative bioavailability in jejunum closed loop study in rats; Mean of 4 exp. The note with it: rat, in vivo, other. The format is ADME, organism-based.
Data set [8] in a line: Relative bioavailability in stomach closed loop study in rats; Mean of 4 exp. The note with it: rat, in vivo; read-out: Relative Bioavailability. Format: ADME, organism-based.
Data set [9] relates to Mus musculus. Put plainly: Analgesic activity against mice in hot plate test when dosed at 100 umol/kg intraperitoneally. Format: functional.
Data set [10] relates to Mus musculus. Kind of data set: Analgesic activity against mice in acetylcholine induced mice writhing test when dosed at 50 umol/kg (ig) administration after 80 min. The format is functional.
Data set [11] relates to Mus musculus. Kind of data set: Analgesic activity against mice in acetylcholine induced mice writhing test when dosed at 50 umol/kg (ig) administration after 40 min. Format: functional. A general note: In writhing tests, fewer writhes than in controls are read as antinociception.
In data set [12] the test system is Mus musculus. Put plainly: Analgesic activity in hot plate test when dosed at 100 umol/kg intraperitoneally. Format: functional. Background: In hot-plate and tail-flick tests a longer latency is read as antinociception.

On to `CCC1(c2cccc(OC(=O)c3c(C)cccc3N)c2)CCCCN(C)C1` (stereo unspecified), for which the bioavailability is 130% in data set [1], 136% in data set [2], 149% in [4] and 120% in data set [6]. The F in data set [3] was 167.97%; in data set [5], 174.27%.

Regarding `CCC1(c2cccc(OC(=O)c3c(C)cccc3N)c2)CCCCN(C)C1.Cl` (stereo unspecified), the “Relative Bioavailability” value in data set [7] is recorded as 562.72%. For the same compound, the bioavailability in data set [8] was found to be 65.4%.

As to `CCC1(c2cccc(OC(=O)c3ccccc3N)c2)CCCCN(C)C1` (stereo unspecified), the bioavailability came out at 59.8% in data set [1]; 107% in data set [2]; 81.9% in data set [3]; 80.4% in [4]; 101% in data set [5]. Further, the Activity in data set [9] was 3; in data set [10] it was 0; in data set [11], 1. This compound also showed a F in data set [6] of 183.64%.

`CCC1(c2cccc(OC(=O)c3ccccc3)c2)CCCCN(C)C1` (stereo unspecified): the figures for the Activity in data set [12], in [10] and in data set [11] were 4, 2 and 2, respectively. Also, the bioavailability in data set [1] was found to be 75.4%; in data set [2], 112%; in data set [3], 81.6%; in [4] it was 133%; in data set [5], 58.1%; in data set [6], 53.9%.
